Results published in patent US7232814B2 (Centre National de la Recherche Scientifique (C.N.R.S.), priority 2000, dated 2007).

Row | SMILES | melting point [°C]
1 | COc1cc2c(cc1OC)-c1[nH]c3ccc(C#N)cc3c1CC(=O)N2 [98 N 217, 2,3-Dimethoxy-6-oxo-5,6,7,12-tetrahydro-indolo [3,2-d][1]benzazepin-9-carbonitrile(9-cyano-2,3-dimethoxypaullone)] | > 330
2 | O=C1Cc2c([nH]c3ccc([N+](=O)[O-])cc23)-c2cc(Br)ccc2N1 [98 N 354, 2-Bromo-7,12-dihydro-9-nitro-indolo[3,2-d][1]benzazepin-6(5H)-one(2-bromo-9-nitropaullone)] | > 330
3 | COc1cc2c(cc1OC)-c1[nH]c3ccc([N+](=O)[O-])cc3c1CC(=O)N2 [98 N 356, 2,3-Dimethoxy-7,12-dihydro-9-nitro-indolo[3,2-d][1]benzazepin-6(5H)-one(2,3-dimethoxy-9-nitropaullone)] | > 330
